Reference: ChEMBL document CHEMBL1201862, “PubChem BioAssay data set” (2004)
Activity calls are given as the source filed them.

What was measured:
[1] = biological target: T1, Alkaline phosphatase, tissue-nonspecific isozyme (Homo sapiens, UniProt P05186); experiment: human TNAP enzyme inhibitors, SAR follow-up, biochemical, luminescent, dose response (AID 1056)
T1 sequence (P05186 whole entry): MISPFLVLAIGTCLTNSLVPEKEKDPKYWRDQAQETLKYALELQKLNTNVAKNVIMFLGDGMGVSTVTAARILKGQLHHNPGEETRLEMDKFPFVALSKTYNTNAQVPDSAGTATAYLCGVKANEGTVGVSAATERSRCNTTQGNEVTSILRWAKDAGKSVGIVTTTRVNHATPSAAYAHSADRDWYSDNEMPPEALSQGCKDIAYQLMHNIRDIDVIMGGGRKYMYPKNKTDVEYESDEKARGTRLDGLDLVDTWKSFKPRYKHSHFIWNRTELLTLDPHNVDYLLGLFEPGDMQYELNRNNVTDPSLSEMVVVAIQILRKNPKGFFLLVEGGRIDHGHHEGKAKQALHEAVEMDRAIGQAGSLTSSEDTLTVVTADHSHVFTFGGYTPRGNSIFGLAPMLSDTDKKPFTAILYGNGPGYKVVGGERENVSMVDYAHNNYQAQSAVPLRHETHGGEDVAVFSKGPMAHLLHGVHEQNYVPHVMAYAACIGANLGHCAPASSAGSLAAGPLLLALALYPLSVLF

[2] = biological target: Glyceraldehyde-3-phosphate dehydrogenase (Homo sapiens, UniProt P04406)
Chain of Glyceraldehyde-3-phosphate dehydrogenase (P04406 whole entry): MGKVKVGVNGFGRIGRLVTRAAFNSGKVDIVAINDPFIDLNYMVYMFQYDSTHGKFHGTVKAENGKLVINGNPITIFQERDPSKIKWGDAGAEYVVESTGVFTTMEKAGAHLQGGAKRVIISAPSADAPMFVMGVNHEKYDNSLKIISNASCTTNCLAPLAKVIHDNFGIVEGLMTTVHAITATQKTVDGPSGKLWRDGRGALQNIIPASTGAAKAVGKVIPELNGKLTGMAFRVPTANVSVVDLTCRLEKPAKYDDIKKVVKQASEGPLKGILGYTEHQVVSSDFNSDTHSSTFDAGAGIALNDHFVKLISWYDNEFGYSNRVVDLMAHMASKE

[3] = biological target: Alkaline phosphatase, placental type (Homo sapiens, UniProt P05187); experiment: PLAP enzyme inhibitors, confirmation, biochemical, luminescence (AID 1512); type: functional
Chain of Alkaline phosphatase, placental type (P05187 whole entry): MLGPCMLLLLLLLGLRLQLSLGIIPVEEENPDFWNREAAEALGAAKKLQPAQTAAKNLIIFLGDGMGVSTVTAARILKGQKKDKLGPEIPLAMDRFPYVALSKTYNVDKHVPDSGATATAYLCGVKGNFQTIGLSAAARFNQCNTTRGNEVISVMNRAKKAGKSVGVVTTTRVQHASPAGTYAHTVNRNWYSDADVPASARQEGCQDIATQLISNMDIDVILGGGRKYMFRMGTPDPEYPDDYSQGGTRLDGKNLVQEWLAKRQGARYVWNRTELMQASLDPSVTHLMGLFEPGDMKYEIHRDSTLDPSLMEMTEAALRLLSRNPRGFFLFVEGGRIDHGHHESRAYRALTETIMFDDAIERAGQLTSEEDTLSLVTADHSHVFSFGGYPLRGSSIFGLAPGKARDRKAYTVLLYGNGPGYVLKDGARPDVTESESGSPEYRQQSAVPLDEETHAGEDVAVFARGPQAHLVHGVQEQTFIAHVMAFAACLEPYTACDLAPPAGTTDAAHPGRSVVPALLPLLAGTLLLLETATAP

[4] = biological target: T2, Polyadenylate-binding protein 1 (Homo sapiens, UniProt P11940); experiment: PABP1 MLLE–PAM2 binding inhibitor potency, dose response, biochemical, fluorescence polarization, FITC-PAM2 peptide (AID 602259); type: functional; conditions: read-out: IC50_Mean
T2 sequence (P11940 whole entry): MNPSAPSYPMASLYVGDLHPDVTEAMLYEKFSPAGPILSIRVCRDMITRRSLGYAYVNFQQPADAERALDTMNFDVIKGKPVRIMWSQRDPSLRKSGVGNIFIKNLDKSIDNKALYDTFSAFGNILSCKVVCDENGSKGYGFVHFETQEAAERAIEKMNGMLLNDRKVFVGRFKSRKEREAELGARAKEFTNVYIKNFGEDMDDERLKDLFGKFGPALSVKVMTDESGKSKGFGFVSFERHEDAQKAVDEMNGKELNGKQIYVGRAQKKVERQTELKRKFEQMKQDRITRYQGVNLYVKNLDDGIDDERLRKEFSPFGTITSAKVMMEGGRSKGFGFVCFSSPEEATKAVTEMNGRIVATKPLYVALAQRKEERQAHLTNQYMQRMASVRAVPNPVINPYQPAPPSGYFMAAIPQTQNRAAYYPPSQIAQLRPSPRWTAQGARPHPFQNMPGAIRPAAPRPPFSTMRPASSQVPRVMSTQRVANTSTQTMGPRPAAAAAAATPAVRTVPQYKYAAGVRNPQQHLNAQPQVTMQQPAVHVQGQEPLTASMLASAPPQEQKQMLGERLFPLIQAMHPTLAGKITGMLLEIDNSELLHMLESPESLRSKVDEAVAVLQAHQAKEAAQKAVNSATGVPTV

[5] = biological target: T2, Polyadenylate-binding protein 1; experiment: PABP1 MLLE–PAM2 interaction inhibitors, dose response, miRNA deadenylation inhibitor project, biochemical, fluorescence polarization, Cy5-PAM2 peptide, secondary (AID 602260); type: functional; conditions: read-out: IC50_Mean
[6] = biological target: E3 ubiquitin-protein ligase XIAP (Homo sapiens, UniProt P98170); experiment: Counter Screen using XIAP-Bir3 for Chemical Antagonists of Bir1/2 domains of IAP-family anti-apoptotic proteins. [Related pubchem assays (depositor defined):AID1018, AID1449, AID1514, AID1638, AID1749, AID1750, AID488957, AID488963]
Chain of E3 ubiquitin-protein ligase XIAP (P98170 whole entry): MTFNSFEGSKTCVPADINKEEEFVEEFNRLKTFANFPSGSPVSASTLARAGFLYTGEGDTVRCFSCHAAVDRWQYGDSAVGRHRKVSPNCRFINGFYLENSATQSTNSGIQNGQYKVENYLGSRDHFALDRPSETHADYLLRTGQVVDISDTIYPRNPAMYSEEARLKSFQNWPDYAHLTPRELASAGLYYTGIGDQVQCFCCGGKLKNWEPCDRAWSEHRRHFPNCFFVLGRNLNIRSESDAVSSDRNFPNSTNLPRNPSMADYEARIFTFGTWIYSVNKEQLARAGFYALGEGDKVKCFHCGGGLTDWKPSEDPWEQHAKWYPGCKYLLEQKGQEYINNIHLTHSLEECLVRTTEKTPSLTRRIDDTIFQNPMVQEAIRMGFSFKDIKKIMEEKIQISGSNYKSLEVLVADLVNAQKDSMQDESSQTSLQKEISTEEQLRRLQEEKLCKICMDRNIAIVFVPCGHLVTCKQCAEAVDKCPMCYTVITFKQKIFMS

[7] = biological target: T3, Ubiquitin-conjugating enzyme E2 N (Homo sapiens, UniProt P61088); type: functional
T3 sequence (P61088 whole entry): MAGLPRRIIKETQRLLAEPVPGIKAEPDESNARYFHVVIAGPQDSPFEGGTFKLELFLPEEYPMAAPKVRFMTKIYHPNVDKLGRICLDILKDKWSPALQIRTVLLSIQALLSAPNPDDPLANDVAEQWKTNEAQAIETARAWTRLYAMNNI

[8] = biological target: T3, Ubiquitin-conjugating enzyme E2 N; type: functional; remark: listed apart in the source
[9] = biological target: T4, Bcl-2-related protein A1 (Mus musculus, UniProt Q07440); type: functional;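 also: confirmatory dose–response counterscreen on Bfl-1, used to check hits from a UBC13 polyubiquitin inhibitor campaign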
T4 sequence (Q07440 whole entry): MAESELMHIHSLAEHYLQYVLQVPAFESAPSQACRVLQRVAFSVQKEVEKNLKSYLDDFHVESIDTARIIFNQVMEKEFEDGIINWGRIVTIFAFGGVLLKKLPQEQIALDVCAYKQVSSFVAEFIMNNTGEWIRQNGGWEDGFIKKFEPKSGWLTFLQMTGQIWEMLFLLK

[10] = biological target: Intestinal-type alkaline phosphatase (Homo sapiens, UniProt P09923); experiment: human intestinal alkaline phosphatase activators, dose response, biochemical, luminescence, uHTS hits (AID 463120); type: functional
Chain of Intestinal-type alkaline phosphatase (P09923 whole entry): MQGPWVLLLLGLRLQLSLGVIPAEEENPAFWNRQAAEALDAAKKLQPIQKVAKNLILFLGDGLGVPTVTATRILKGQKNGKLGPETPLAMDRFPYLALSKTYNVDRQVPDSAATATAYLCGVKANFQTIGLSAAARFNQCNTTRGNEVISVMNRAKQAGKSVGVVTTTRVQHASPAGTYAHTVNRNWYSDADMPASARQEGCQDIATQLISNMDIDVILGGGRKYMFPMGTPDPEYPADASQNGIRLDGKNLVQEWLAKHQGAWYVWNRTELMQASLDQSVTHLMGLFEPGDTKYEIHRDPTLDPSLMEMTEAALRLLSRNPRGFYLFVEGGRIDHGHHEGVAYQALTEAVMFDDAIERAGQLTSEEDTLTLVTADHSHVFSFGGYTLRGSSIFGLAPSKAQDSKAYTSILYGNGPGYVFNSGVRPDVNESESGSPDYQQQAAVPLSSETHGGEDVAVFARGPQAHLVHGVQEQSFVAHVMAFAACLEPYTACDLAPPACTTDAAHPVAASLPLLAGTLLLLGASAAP

[11] = Luminescence Cell-Based Dose Response HTS to Identify Activators of Luciferase Translation or Activity in H4 […] Cells. [Related pubchem assays: 1829 (Project Summary), 1814 (Primary HTS)]; type: functional
[12] = system: H4; experiment: Luminescence Cell-Based Dose Response HTS to Identify Activators of 5'UTR Stem-Loop Driven Prion Protein mRNA Translation in H4 Neuroglioblastoma Cells. [Related pubchem assays: 1829 (Project Summary), 1814 (Primary HTS)]; type: functional; conditions: Homo sapiens
[13] = Luminescence Cell-Based Dose Confirmation HTS to Identify Activators of 5'UTR Stem-Loop Driven Alpha-Synuclein mRNA Translation in H4 Neuroglioblastoma Cells. [Related pubchem assays: 1829 (Project Summary), 1814 (Primary HTS)]; type: functional
[14] = biological target: T5, Sphingosine 1-phosphate receptor 4 (Homo sapiens, UniProt O95977); experiment: Late-stage fluorescence dose response cell-based assay to identify agonists of the Sphingosine 1-Phosphate Receptor 4 (S1P4): purchased compounds EC50. [Related pubchem assays (depositor defined):AID1509, AID1523, AID1563, AID1686, AID1701, AID1801]; type: functional
T5 sequence (O95977 whole entry): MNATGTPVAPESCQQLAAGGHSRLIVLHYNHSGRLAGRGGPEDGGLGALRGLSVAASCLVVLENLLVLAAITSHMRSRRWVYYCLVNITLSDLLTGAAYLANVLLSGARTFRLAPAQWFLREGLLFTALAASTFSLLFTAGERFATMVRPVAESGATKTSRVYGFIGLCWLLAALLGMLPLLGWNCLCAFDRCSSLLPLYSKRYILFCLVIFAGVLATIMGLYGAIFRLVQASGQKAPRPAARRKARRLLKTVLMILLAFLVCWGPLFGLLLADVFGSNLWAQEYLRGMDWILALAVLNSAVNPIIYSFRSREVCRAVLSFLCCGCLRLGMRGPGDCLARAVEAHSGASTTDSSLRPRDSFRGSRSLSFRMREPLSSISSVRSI

[15] = microbe, parasite or virus in culture; type: functional; conditions: Mycobacterium tuberculosis
[16] = THP-1 cell cytotoxicity, dose response, cytotoxicity control for non-replicating M. tuberculosis project (AID 489025); type: functional
[17] = cells; type: functional
[18] = Vero E6 cell cytotoxicity, dose response, cytotoxicity control for non-replicating M. tuberculosis project, secondary assay (AID 492998); type: functional, VeroE6; conditions: Vero C1008
[19] = biological target: T6, CAAX prenyl protease 2 (Saccharomyces cerevisiae S288c, UniProt Q03530); type: biochemical
T6 sequence (Q03530 whole entry): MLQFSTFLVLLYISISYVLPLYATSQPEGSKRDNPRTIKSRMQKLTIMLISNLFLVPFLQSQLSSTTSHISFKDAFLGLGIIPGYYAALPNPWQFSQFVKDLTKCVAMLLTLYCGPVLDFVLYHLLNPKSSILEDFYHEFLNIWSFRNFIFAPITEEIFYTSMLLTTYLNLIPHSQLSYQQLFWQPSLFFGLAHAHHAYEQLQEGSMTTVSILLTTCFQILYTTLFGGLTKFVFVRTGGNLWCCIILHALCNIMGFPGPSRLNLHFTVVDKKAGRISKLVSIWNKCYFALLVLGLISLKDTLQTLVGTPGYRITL

[20] = biological target: T7, Hexokinase (Trypanosoma brucei, UniProt Q38C41); experiment: Confirmation assay for inhibitors of Trypanosoma brucei hexokinase 1-Analogue-first series. [Related pubchem assays (depositor defined):AID1430, AID1632, AID2516, AID2560, AID2579, AID2600, AID449725, AID492951]; type: functional
T7 sequence (Q38C41 whole entry): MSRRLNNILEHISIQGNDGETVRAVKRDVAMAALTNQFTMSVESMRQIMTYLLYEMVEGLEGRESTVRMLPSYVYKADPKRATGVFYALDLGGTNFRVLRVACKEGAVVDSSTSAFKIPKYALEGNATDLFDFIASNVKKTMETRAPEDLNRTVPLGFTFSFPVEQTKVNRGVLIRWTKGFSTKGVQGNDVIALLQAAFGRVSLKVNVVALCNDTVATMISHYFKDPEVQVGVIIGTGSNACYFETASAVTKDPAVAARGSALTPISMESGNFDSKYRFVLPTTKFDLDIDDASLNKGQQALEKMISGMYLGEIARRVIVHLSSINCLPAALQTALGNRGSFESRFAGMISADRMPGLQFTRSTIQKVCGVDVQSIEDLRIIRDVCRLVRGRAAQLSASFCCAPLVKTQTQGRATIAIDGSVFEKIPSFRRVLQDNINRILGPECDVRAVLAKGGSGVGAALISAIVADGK

COc1ccc(-c2[nH]nc(-c3ccccc3)c2-c2nc3ccccc3[nH]2)cc1
IC50 [1]: > 100 µM (inactive) | IC50 [2]: 81.2 µM (active) | IC50 [3]: > 100 µM (inactive)

COc1cc(NS(=O)(=O)c2ccc(NC(=S)NC(=O)/C=C/c3ccc(F)cc3)cc2)ncn1
IC50 [4]: > 66 µM (inactive) | IC50 [5]: > 66 µM (inactive) | IC50 [6]: > 20 µM (inactive)

O=C(NNC(=O)c1nn(-c2ccc(F)cc2)ccc1=O)c1ccc(Cl)cc1
IC50 [7]: 19.8 µM (active) | IC50 [8]: 18.9 µM (active) | IC50 [9]: > 20 µM (inactive)

Cc1ccc(S(=O)(=O)Nc2nc3ccccc3nc2NCc2ccco2)cc1
EC50 [10]: > 100 µM (inactive) | EC50 [11]: 10.8 µM (active) | EC50 [12]: 7.32 µM (active) | EC50 [13]: 8.02 µM (active)

Cc1ccc(OCC(=O)N(C)CCOc2ccc(Cl)cc2)c([N+](=O)[O-])n1
EC50 [14]: > 50 µM (inactive)

CNC(C)C#Cc1ccc2oc3cc(C)c(C)cc3c(=O)c2c1 (configuration not stated)
CC50 [15]: 29 µM (active) | CC50 [16]: 22.2 µM (active) | IC50 [17]: 11.8 µM (active) | CC50 [18]: > 20 µM (active)

CCOC(=O)C1CCCN(C(=O)CCn2nnnc2CN2CCOCC2)C1 (configuration not stated)
AC50 [19]: 27.9 µM (active)

Cc1ccc(OCc2c(Cl)cccc2Cl)c([N+](=O)[O-])n1
EC50 [14]: > 50 µM (inactive)

Cc1ccc(OCc2cccc(COc3ccc(C)nc3[N+](=O)[O-])c2)c([N+](=O)[O-])n1
EC50 [14]: > 50 µM (inactive)

COc1ccc(C(=O)Nc2cc(C(=O)O)ccc2Cl)cc1
IC50 [20]: > 25 µM (inactive)

COc1ccccc1-c1nnc(SCC(=O)Nc2ccccc2[N+](=O)[O-])[nH]1
IC50 [1]: 13.3 µM (active) | IC50 [2]: > 100 µM (not active) | IC50 [3]: > 100 µM (inactive)

COc1ccc(C(=O)NC(CC(=O)O)c2ccc(Cl)cc2)cc1 (configuration not stated)
IC50 [20]: > 25 µM (inactive)

C#CCOCCOCCOCCNc1nc(N2CCN(C(=O)[C@H](CCCN=C(N)N)n3cc(C(N)[C@@H](C)CC)nn3)CC2)nc(N2CCN(C(=O)[C@H](CCCCN)n3cc([C@@H](N)[C@H](C)CC)nn3)CC2)n1 (some centres not stated)
IC50 [7]: 18.4 µM (active) | IC50 [8]: 15.2 µM (active) | IC50 [9]: > 20 µM (inactive)

Cn1ncc2c1ncn1c(-c3ccccc3)nnc21
IC50 [1]: > 100 µM (inactive) | IC50 [2]: > 100 µM (not active) | IC50 [3]: > 100 µM (inactive)
